In ChEMBL document CHEMBL3880419, “Modulators of sperm hypermobility and uses thereof” (2013):
Active and inactive are the calls of the source. The rule behind the calls is not given here.

Experiments:
[1] = Toxicity in C57BL/6 female mouse assessed as effect on serum biochemistry administered in diet measured after prolonged compound treatment; details: in vivo, po
[2] = Toxicity in C57BL/6 male mouse assessed as effect on serum biochemistry administered in diet measured after prolonged compound treatment; details: in vivo, po
[3] = Toxicity in C57BL/6 female mouse assessed as effect on reproductive hormone levels administered in diet measured after prolonged compound treatment; details: in vivo, po
Mus musculus [4] = assay: Reversible inhibition of fertility in C57BL/6 male mouse administered in diet for 2 months; assay type: functional; details: TDE = time-dependent effect
Mus musculus [5] = assay: In vivo inhibition of fertility in C57BL/6 male mouse administered in diet after 7 to 9 days; assay type: functional, organism-based
[6] = Toxicity in C57BL/6 female mouse assessed as effect on animal behavior administered in diet measured after prolonged compound treatment; details: in vivo, po
[7] = Toxicity in C57BL/6 male mouse assessed as effect on animal behavior administered in diet measured after prolonged compound treatment; details: in vivo, po
Mus musculus [8] = assay: Reversible inhibition of fertility in C57BL/6 female mouse administered in diet for 2 months; assay type: functional; details: TDE = time-dependent effect
[9] = biological target: T1, Cation channel sperm-associated protein 1 (Mus musculus) (UniProt Q91ZR5); assay: Inhibition of wild type CatSper1 channel in mouse corpus epididymal sperm cells assessed decrease in Ca2+ current by whole cell patch clamp assay
T1 sequence (whole entry): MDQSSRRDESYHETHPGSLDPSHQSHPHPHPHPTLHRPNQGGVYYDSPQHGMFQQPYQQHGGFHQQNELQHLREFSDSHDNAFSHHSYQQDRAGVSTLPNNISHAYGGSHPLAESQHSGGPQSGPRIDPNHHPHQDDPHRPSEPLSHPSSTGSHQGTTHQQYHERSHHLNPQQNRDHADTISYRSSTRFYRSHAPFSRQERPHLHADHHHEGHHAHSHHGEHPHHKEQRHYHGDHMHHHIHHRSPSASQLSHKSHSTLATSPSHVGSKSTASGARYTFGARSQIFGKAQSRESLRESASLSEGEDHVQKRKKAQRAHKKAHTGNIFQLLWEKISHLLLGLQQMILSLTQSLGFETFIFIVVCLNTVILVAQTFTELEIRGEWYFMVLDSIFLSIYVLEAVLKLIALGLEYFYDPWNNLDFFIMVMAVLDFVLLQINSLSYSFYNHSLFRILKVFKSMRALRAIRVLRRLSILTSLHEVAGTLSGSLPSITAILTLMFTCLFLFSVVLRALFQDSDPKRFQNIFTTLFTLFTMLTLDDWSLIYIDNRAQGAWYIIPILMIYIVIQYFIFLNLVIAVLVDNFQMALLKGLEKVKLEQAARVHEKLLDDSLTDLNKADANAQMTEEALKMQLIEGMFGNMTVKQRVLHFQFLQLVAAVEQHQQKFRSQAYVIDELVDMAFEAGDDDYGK

[10] = biological target: T1, Cation channel sperm-associated protein 1 (Mus musculus); assay: Inhibition of CatSper1 channel […] in 129/SvJ x C57BL/6J mouse cauda epididymal sperm assessed as reduction in sperm hyperactivity after 5 mins by single sperm motility assay
[11] = biological target: T2, Cation channel sperm-associated protein 1 (Homo sapiens) (UniProt Q8NEC5); assay: Inhibition of CatSper1 channel in human sperm assessed as decrease in sperm hyperactivity after 5 mins by computer-assisted sperm analysis
T2 sequence (whole entry): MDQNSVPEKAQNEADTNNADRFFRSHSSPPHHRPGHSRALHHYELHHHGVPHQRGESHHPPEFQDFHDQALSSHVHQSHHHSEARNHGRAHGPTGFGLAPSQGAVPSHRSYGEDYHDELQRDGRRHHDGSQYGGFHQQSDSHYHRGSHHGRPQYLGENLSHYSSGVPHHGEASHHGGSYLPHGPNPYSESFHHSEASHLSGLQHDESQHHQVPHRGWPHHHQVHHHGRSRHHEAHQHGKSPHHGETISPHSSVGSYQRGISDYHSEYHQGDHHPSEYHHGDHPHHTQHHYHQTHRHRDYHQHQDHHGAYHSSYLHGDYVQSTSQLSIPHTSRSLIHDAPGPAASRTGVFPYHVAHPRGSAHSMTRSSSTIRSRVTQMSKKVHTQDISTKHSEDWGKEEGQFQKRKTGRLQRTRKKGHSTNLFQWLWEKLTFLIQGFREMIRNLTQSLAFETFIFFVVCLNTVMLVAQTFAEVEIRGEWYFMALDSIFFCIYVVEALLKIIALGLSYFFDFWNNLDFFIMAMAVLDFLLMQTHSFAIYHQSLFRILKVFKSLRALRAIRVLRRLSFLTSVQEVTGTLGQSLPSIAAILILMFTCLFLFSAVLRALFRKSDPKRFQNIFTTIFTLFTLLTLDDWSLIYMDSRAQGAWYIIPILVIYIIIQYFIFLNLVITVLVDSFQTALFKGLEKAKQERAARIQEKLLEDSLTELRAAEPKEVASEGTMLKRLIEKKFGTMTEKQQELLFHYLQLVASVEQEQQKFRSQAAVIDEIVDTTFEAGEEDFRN

Mus musculus [12] = assay: In vivo inhibition of fertility in C57BL/6 female mouse administered in diet treated for 5 weeks followed by breeding of female mouse with nontreated age-matched male mouse for 4 days; assay type: functional, organism-based
[13] = Toxicity in C57BL/6 male mouse assessed as effect on reproductive hormone levels administered in diet measured after prolonged compound treatment; details: in vivo, po
[14] = biological target: T2, Cation channel sperm-associated protein 1 (Homo sapiens); assay: Inhibition of CatSper1 channel in human sperm assessed as sperm hyperactivity at 1 uM after 5 mins by computer-assisted sperm analysis (reference value: 10.5%); set-up: scale not given: the % may be the effect or the level left
[15] = biological target: T2, Cation channel sperm-associated protein 1 (Homo sapiens); assay: Inhibition of CatSper1 channel in human sperm assessed as sperm motility at 50 uM after 5 mins by computer-assisted sperm analysis (reference value: 68%); set-up: scale not given: the % may be the effect or the level left
[16] = biological target: T2, Cation channel sperm-associated protein 1 (Homo sapiens); assay: Inhibition of CatSper1 channel in human sperm assessed as sperm hyperactivity at 50 uM after 5 mins by computer-assisted sperm analysis (reference value: 10.5%); set-up: scale not given: the % may be the effect or the level left
[17] = biological target: T1, Cation channel sperm-associated protein 1 (Mus musculus); assay: Inhibition of CatSper1 currents in mouse spermatozoa isolated from corpus epididymis at 20 uM by whole cell patch clamp assay
[18] = biological target: T2, Cation channel sperm-associated protein 1 (Homo sapiens); assay: Inhibition of CatSper1 channel in human sperm assessed as sperm motility at 1 uM after 5 mins by computer-assisted sperm analysis (reference value: 68%); set-up: scale not given: the % may be the effect or the level left

| Structure (SMILES) | inhibition [9] | inhibition [10] | inhibition [11] | Activity [14] [%] | Activity [15] [%] | Activity [16] [%] | inhibition [17] | Activity [18] [%] | Activity [1] | Activity [2] | Activity [3] | inhibition (Mus musculus [4]) | inhibition (Mus musculus [5]) | Activity [6] | Activity [7] | inhibition (Mus musculus [8]) | inhibition (Mus musculus [12]) | Activity [13] |
| --- | --- | --- | --- | --- | --- | --- | --- | --- | --- | --- | --- | --- | --- | --- | --- | --- | --- | --- |
| O=C(c1ccc(Cl)c(Cl)c1)c1no[n+]([O-])c1C(=O)c1ccc(Cl)c(Cl)c1 | Active | Dose-dependent effect | Active | – | – | – | – | – | Non-Toxic | Non-Toxic | Non-Toxic | Tde | Dose-dependent effect | Non-Toxic | Non-Toxic | Tde | Active | Non-Toxic |
| CC(C)(C)C(=O)c1no[n+]([O-])c1C(=O)C(C)(C)C | Active | Dose-dependent effect | Active | – | – | – | – | – | Non-Toxic | Non-Toxic | Non-Toxic | Tde | Dose-dependent effect | Non-Toxic | Non-Toxic | Tde | Active | Non-Toxic |
| Cc1conc1C(=O)c1no[n+]([O-])c1C(=O)c1nocc1C | Active | Dose-dependent effect | Active | – | – | – | – | – | Non-Toxic | Non-Toxic | Non-Toxic | Tde | Dose-dependent effect | Non-Toxic | Non-Toxic | Tde | Active | Non-Toxic |

Now from value to molecule, other results behind:

| inhibition [9] | inhibition [10] | inhibition [11] | Activity [14] [%] | Activity [15] [%] | Activity [16] [%] | inhibition [17] | Activity [18] [%] | Structure (SMILES) | Activity [1] | Activity [2] | Activity [3] | inhibition (Mus musculus [4]) | inhibition (Mus musculus [5]) | Activity [6] | Activity [7] | inhibition (Mus musculus [8]) | inhibition (Mus musculus [12]) | Activity [13] |
| --- | --- | --- | --- | --- | --- | --- | --- | --- | --- | --- | --- | --- | --- | --- | --- | --- | --- | --- |
| Active | Dose-dependent effect | – | 6.2 | 70 | 1.6 | Active | 59 | O=C(c1cccs1)c1no[n+]([O-])c1C(=O)c1cccs1 | Non-Toxic | Non-Toxic | Non-Toxic | Tde | Dose-dependent effect | Non-Toxic | Non-Toxic | Tde | Active | Non-Toxic |
| Active | Dose-dependent effect | – | – | – | – | – | – | O=C(c1ccccc1)c1no[n+]([O-])c1C(=O)c1ccccc1 | Non-Toxic | Non-Toxic | Non-Toxic | Tde | Dose-dependent effect | Non-Toxic | Non-Toxic | Tde | Active | Non-Toxic |
